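Five compound concentrations were applied to cells in 96-well plates for 48 hours; endpoints were derived by simple linear interpolation of the resulting dose-response curve. The concentration for full growth arrest is given as TGI.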
Tests used:
Experiment in all cases: NCI anticancer screen, dose series, 48 h
[1] = test system: MALME-3M melanoma
[2] = test system: HCC-2998 colon
[3] = test system: OVCAR-3 ovarian
[4] = test system: SK-MEL-2 melanoma
[5] = test system: BT-549 breast
[6] = test system: SNB-19 CNS
[7] = test system: IGROV1 ovarian
[8] = test system: DU-145 prostate
[9] = test system: NCI-H460 lung
[10] = test system: HCT-15 colon
[11] = test system: ACHN renal
[12] = test system: 786-0 renal
[13] = test system: MDA-MB-435
[14] = test system: OVCAR-5 ovarian
[15] = test system: RPMI-8226 leukemia
[16] = test system: NCI-H226 lung
[17] = test system: SR leukemia
[18] = test system: KM12 colon
[19] = test system: MDA-MB-231 breast
[20] = test system: COLO 205 colon
[21] = test system: SK-MEL-28 melanoma
[22] = test system: HCT-116 colon
[23] = test system: OVCAR-4 ovarian
[24] = test system: CCRF-CEM leukemia
[25] = test system: MDA-N
[26] = test system: MOLT-4 leukemia
[27] = test system: T-47D breast
[28] = test system: HL-60(TB) leukemia
[29] = test system: K-562 leukemia
[30] = test system: MCF7 breast
[31] = test system: HS 578T breast
[32] = test system: NCI-H522 lung
[33] = test system: CAKI-1 renal
[34] = test system: SNB-75 CNS
[35] = test system: HOP-62 NSCLC
[36] = test system: TK-10 renal
[37] = test system: RXF 393 renal
[38] = test system: EKVX NSCLC
[39] = test system: HT29 colon
[40] = test system: SK-MEL-5 melanoma
[41] = test system: UACC-257 melanoma
[42] = test system: PC-3 prostate
[43] = test system: UACC-62 melanoma
[44] = test system: NCI/ADR-RES ovarian
[45] = test system: M14 melanoma
[46] = test system: A549 NSCLC
[47] = test system: SF-295 CNS
[48] = test system: HOP-92 NSCLC
[49] = test system: SK-OV-3 ovarian
[50] = test system: U251 CNS
[51] = test system: SN12C renal
[52] = test system: SF-539 CNS
[53] = test system: UO-31 renal
[54] = test system: A498 renal
[55] = test system: OVCAR-8 ovarian
[56] = test system: NCI-H23 lung
[57] = test system: SF-268 CNS
[58] = test system: SW-620 colon
[59] = test system: LOX IMVI melanoma

SMILES: COC(=O)CCC(C)[C@H]1CCC2C3CC[C@@H]4CC5(CC[C@]4(C)C3C[C@H](OC(C)=O)[C@@]21C)OOC1(CCCCC1)OO5 (stereo partly drawn)
- TGI [1]: 60.3 µM
- TGI [2]: 9.2 µM
- TGI [3]: > 100 µM
- TGI [4]: 52.2 µM
- TGI [5]: > 100 µM
- TGI [6]: > 100 µM
- TGI [7]: 5.48 µM
- TGI [8]: 43.1 µM
- TGI [9]: > 100 µM
- TGI [10]: > 100 µM
- TGI [11]: > 100 µM
- TGI [12]: > 100 µM
- TGI [13]: 37 µM
- TGI [14]: > 100 µM
- TGI [15]: 10.8 µM
- TGI [16]: > 100 µM
- TGI [17]: > 100 µM
- TGI [18]: > 100 µM
- TGI [19]: > 100 µM
- TGI [20]: > 100 µM
- TGI [21]: > 100 µM
- TGI [22]: > 100 µM
- TGI [23]: > 100 µM
- TGI [24]: > 100 µM
- TGI [25]: 35 µM
- TGI [26]: > 100 µM
- TGI [27]: 50 µM
- TGI [28]: 8.89 µM
- TGI [29]: > 100 µM
- TGI [30]: > 100 µM
- TGI [31]: > 100 µM
- TGI [32]: 40.5 µM
- TGI [33]: 37 µM
- TGI [34]: > 100 µM
- TGI [35]: > 100 µM
- TGI [36]: > 100 µM
- TGI [37]: > 100 µM
- TGI [38]: 7.37 µM
- TGI [39]: > 100 µM
- TGI [40]: 80.9 µM
- TGI [41]: > 100 µM
- TGI [42]: > 100 µM
- TGI [43]: > 100 µM
- TGI [44]: > 100 µM
- TGI [45]: > 100 µM
- TGI [46]: > 100 µM
- TGI [47]: > 100 µM
- TGI [48]: > 100 µM
- TGI [49]: > 100 µM
- TGI [50]: > 100 µM
- TGI [51]: > 100 µM
- TGI [52]: > 100 µM
- TGI [53]: 9.04 µM
- TGI [54]: > 100 µM
- TGI [55]: > 100 µM
- TGI [56]: > 100 µM
- TGI [57]: > 100 µM

SMILES: COc1cc2c(cc1O)C(Cc1ccc(OCc3ccccc3)c(OCc3ccccc3)c1)N(C(=O)NCCc1ccccc1)CC2 (stereo not drawn)
- TGI [1]: > 100 µM
- TGI [2]: > 100 µM
- TGI [3]: > 100 µM
- TGI [4]: > 100 µM
- TGI [5]: > 100 µM
- TGI [6]: > 100 µM
- TGI [7]: > 100 µM
- TGI [8]: > 100 µM
- TGI [9]: > 100 µM
- TGI [10]: > 100 µM
- TGI [58]: > 100 µM
- TGI [11]: > 100 µM
- TGI [12]: > 100 µM
- TGI [13]: > 100 µM
- TGI [14]: > 100 µM
- TGI [15]: > 100 µM
- TGI [16]: > 100 µM
- TGI [17]: > 100 µM
- TGI [18]: > 100 µM
- TGI [19]: > 100 µM
- TGI [20]: > 100 µM
- TGI [22]: > 100 µM
- TGI [59]: > 100 µM
- TGI [23]: > 100 µM
- TGI [24]: > 100 µM
- TGI [25]: > 100 µM
- TGI [26]: > 100 µM
- TGI [27]: > 100 µM
- TGI [28]: > 100 µM
- TGI [29]: > 100 µM
- TGI [30]: > 100 µM
- TGI [31]: > 100 µM
- TGI [32]: 72.9 µM
- TGI [33]: > 100 µM
- TGI [34]: > 100 µM
- TGI [35]: > 100 µM
- TGI [36]: > 100 µM
- TGI [37]: > 100 µM
- TGI [38]: > 100 µM
- TGI [39]: > 100 µM
- TGI [40]: > 100 µM
- TGI [41]: > 100 µM
- TGI [42]: > 100 µM
- TGI [43]: > 100 µM
- TGI [44]: > 100 µM
- TGI [45]: > 100 µM
- TGI [46]: > 100 µM
- TGI [47]: > 100 µM
- TGI [48]: > 100 µM
- TGI [49]: > 100 µM
- TGI [50]: > 100 µM
- TGI [51]: > 100 µM
- TGI [52]: > 100 µM
- TGI [53]: > 100 µM
- TGI [54]: > 100 µM
- TGI [55]: > 100 µM
- TGI [56]: > 100 µM
- TGI [57]: > 100 µM

SMILES: CC[C@]1(c2ccc3c(c2)OCO3)C=[N+]([O-])O[C@H](OC2CCCC2(c2ccccc2)c2ccccc2)[C@@H]1OC(C)=O (stereo partly drawn)
- TGI [2]: 4.05 µM
- TGI [3]: 3.42 µM
- TGI [4]: 5.73 µM
- TGI [5]: 8.43 µM
- TGI [6]: 12.7 µM
- TGI [7]: > 21.5 µM
- TGI [8]: 7.44 µM
- TGI [9]: 4.91 µM
- TGI [10]: 6.18 µM
- TGI [58]: > 100 µM
- TGI [11]: 9.75 µM
- TGI [12]: 3.77 µM
- TGI [13]: 4.1 µM
- TGI [14]: > 28.3 µM
- TGI [16]: 22.7 µM
- TGI [17]: > 21.7 µM
- TGI [18]: 3.62 µM
- TGI [19]: > 21.7 µM
- TGI [20]: 5.07 µM
- TGI [22]: 3.67 µM
- TGI [59]: > 22.4 µM
- TGI [23]: 10.1 µM
- TGI [24]: > 64.6 µM
- TGI [25]: > 30.2 µM
- TGI [26]: > 19.8 µM
- TGI [27]: 10.2 µM
- TGI [28]: 12.1 µM
- TGI [29]: > 100 µM
- TGI [30]: > 24.1 µM
- TGI [31]: > 100 µM
- TGI [32]: 4.78 µM
- TGI [33]: > 100 µM
- TGI [34]: 5.93 µM
- TGI [35]: 5.38 µM
- TGI [36]: 11.6 µM
- TGI [37]: 2.63 µM
- TGI [38]: 12.8 µM
- TGI [39]: 3.78 µM
- TGI [40]: 3.54 µM
- TGI [41]: 7.62 µM
- TGI [42]: 13.1 µM
- TGI [43]: 4.64 µM
- TGI [44]: 4.88 µM
- TGI [45]: 4.84 µM
- TGI [46]: 11.4 µM
- TGI [47]: 3.2 µM
- TGI [48]: 76.1 µM
- TGI [49]: 14.4 µM
- TGI [50]: > 62.6 µM
- TGI [51]: > 22.3 µM
- TGI [52]: > 100 µM
- TGI [53]: 5.21 µM
- TGI [54]: 2.94 µM
- TGI [56]: 8.68 µM
- TGI [57]: 6.64 µM

SMILES: N=C(N)n1cc(/C=N/N=C(N)N)cn1
- TGI [1]: > 100 µM
- TGI [2]: > 100 µM
- TGI [3]: > 100 µM
- TGI [5]: > 100 µM
- TGI [6]: > 100 µM
- TGI [7]: > 100 µM
- TGI [8]: > 100 µM
- TGI [9]: > 100 µM
- TGI [10]: > 100 µM
- TGI [58]: > 100 µM
- TGI [11]: > 100 µM
- TGI [12]: > 100 µM
- TGI [13]: > 100 µM
- TGI [14]: > 100 µM
- TGI [15]: > 100 µM
- TGI [16]: > 100 µM
- TGI [17]: > 100 µM
- TGI [18]: > 100 µM
- TGI [19]: > 100 µM
- TGI [20]: > 100 µM
- TGI [21]: > 100 µM
- TGI [22]: > 100 µM
- TGI [59]: > 100 µM
- TGI [23]: > 100 µM
- TGI [24]: > 100 µM
- TGI [25]: > 100 µM
- TGI [26]: > 100 µM
- TGI [27]: > 100 µM
- TGI [28]: > 100 µM
- TGI [29]: > 100 µM
- TGI [30]: > 100 µM
- TGI [31]: > 100 µM
- TGI [32]: > 100 µM
- TGI [33]: > 100 µM
- TGI [34]: > 100 µM
- TGI [35]: > 100 µM
- TGI [36]: > 100 µM
- TGI [37]: > 100 µM
- TGI [38]: > 100 µM
- TGI [39]: > 100 µM
- TGI [40]: > 100 µM
- TGI [41]: > 100 µM
- TGI [42]: > 100 µM
- TGI [43]: > 100 µM
- TGI [44]: > 100 µM
- TGI [45]: > 100 µM
- TGI [46]: > 100 µM
- TGI [47]: > 100 µM
- TGI [48]: > 100 µM
- TGI [49]: > 100 µM
- TGI [50]: > 100 µM
- TGI [51]: > 100 µM
- TGI [52]: > 100 µM
- TGI [53]: > 100 µM
- TGI [54]: > 100 µM
- TGI [55]: > 100 µM
- TGI [56]: > 100 µM
- TGI [57]: > 100 µM
